Read-outs that look alike come from different tables or passages of the source.
Key:
[1] = biological target: T1, Yeast α-glucosidase enzyme (Saccharomyces cerevisiae, UniProt P53341); test: Kinetic study of α-glucosidase inhibition (Lineweaver-Burk and secondary plots); format: biochemical; settings: for mode of enzyme inhibition: Lineweaver-Burk plots; for Slope: Lineweaver-Burk
Method: Lineweaver-Burk plots of the inverted values of velocity (1/V) versus the inverted values of substrate concentration (1/[S]) were prepared. […] To determine the Ki of each amide, we constructed a secondary plot by replotting the reciprocal of Km (1/Km) against inhibitor concentration.
Vacuum liquid chromatography (VLC) and column chromatography (CC) were performed on silica gel 60 (40–63 μm, Merck, Darmstadt, Germany), silica gel 60 (63–200 μm, Merck, Darmstadt, Germany) or Sephadex LH-20 (Pharmacia, Piscataway, NJ, USA) or Diaion HP20 (Mitsubishi Chemical, Tokyo, Japan). For preparative HPLC, a Shim-pack Prep-ODS (No.2025820) column (Shimadzu, Tokyo, Japan), with isocratic 50% methanol in water, SPD-10A UV-Vis detector (Shimadzu, Tokyo, Japan), and flow rate 1 mL/min, was used. NMR spectra were obtained with a Bruker Avance DPX-300 FT-NMR spectrometer (Brucker Corporation, Billerica, MA, USA). High-resolution electrospray ionization mass spectra (HR-ESI-MS) were recorded with a Bruker micro TOF mass spectrometer (Bruker Daltonics, Billerica, MA, USA). Optical rotations were obtained with a PerkinElmer 341 polarimeter (PerkinElmer, Boston, MA, USA). UV spectra were measured on an Agilent Technologies Cary 60 UV-Vis (Agilent, Santa Clara, CA, USA), and IR spectra (Agilent, Santa Clara, CA, USA) were recorded on a Perkin-Elmer FT-IR 1760x spectrophotometer (PerkinElmer, Boston, MA, USA). […] Absorbance in 96-well plates was measured using a microplate reader (Wallac1420 Multilevel counter, Victor3, PerkinElmer).
The kinetic assay of enzyme inhibition was done in a 96-well plate. The enzyme kinetics parameters (Km and Vmax) were obtained by analyzing the double reciprocal Lineweaver-Burk plot (1/V vs. 1/[S]). Each experiment was carried out by varying the concentration of pNPG (2.0, 1.0, 0.5, 0.25, 0.125 mM) in the absence and presence of different concentrations of the test sample. The reaction was monitored at 405 nm by a microplate reader every 5 min for a total time of 30 min. Each experiment was performed in triplicate. […] The inhibition constant (Ki) of each compound was then calculated from the intersection on the abscissa.

[2] = biological target: T1, Yeast α-glucosidase enzyme; settings: earlier report; cited from earlier work

T1 sequence (P53341 whole entry): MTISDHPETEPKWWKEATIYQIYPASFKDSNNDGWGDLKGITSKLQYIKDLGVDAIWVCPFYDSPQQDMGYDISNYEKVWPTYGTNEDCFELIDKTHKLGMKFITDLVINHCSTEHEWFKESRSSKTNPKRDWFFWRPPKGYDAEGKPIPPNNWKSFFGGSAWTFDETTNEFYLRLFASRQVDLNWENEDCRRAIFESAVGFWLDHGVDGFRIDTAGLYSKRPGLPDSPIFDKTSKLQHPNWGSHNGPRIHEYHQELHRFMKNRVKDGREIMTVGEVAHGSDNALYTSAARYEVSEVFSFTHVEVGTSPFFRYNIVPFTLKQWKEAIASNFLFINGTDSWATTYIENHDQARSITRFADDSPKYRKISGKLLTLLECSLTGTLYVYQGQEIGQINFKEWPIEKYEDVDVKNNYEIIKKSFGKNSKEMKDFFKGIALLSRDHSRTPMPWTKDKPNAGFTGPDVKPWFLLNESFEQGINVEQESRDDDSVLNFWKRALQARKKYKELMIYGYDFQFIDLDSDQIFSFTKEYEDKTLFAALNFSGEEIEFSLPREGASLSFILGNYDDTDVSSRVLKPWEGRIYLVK

Structure (SMILES)	mode of enzyme inhibition [1]	Slope ([1]; inhibitor dose 0.5 µM)	Slope ([1]; inhibitor dose 1.0 µM)	Slope ([1]; inhibitor dose 2.0 µM)	Vmax ([1]; inhibitor dose 0.5 µM)	Vmax ([1]; inhibitor dose 1.0 µM)	Vmax ([1]; inhibitor dose 2.0 µM)	mode of enzyme inhibition [2]	Slope ([1]; inhibitor dose 4.0 µM)	Slope ([1]; inhibitor dose 8.0 µM)	Vmax ([1]; inhibitor dose 4.0 µM)	Vmax ([1]; inhibitor dose 8.0 µM)
O=C(/C=C/c1ccc(O)cc1)NCCc1ccc(O)cc1 [Compound 6, N-trans-coumaroyltyramine]	uncompetitive inhibitors	34.55	34.67	35.56	0.0077 ΔA405/min	0.0030 ΔA405/min	0.0018 ΔA405/min	uncompetitive α-glucosidase inhibition	–	–	–	–
COc1cc(/C=C/C(=O)NCCc2ccc(O)cc2)ccc1O [Compound 7, N-trans-feruloyltyramine]	uncompetitive inhibitors	–	–	36.62	–	–	0.0072 ΔA405/min	–	37.56	36.51	0.0044 ΔA405/min	0.0027 ΔA405/min
C[C@H]1O[C@H](O[C@H]2[C@H](O)[C@@H](O)[C@@H](O[C@H]3[C@H](O)[C@@H](O)C(O)O[C@@H]3CO)O[C@@H]2CO)[C@H](O)[C@@H](O)[C@@H]1N[C@H]1C=C(CO)[C@@H](O)[C@H](O)[C@H]1O (stereo partly shown) [acarbose, reference compound]	competitive inhibition	–	–	–	–	–	–	–	–	–	–	–

— publication PMC6099400, “A New Benzophenone C-Glucoside and Other Constituents of Pseuduvaria fragrans and Their α-Glucosidase Inhibitory Activity” (Molecules : A Journal of Synthetic Chemistry and Natural …, 2018)
